Results on one molecule are retold here after paper PMC10053865 (2023).

The subject of assay [1] is Cocaine aptamer (Au-supported sensor) (DNA, aptamer) GACAAGGAAAATCCTTCAACGAAGTGGGTC
The assay is described as follows: square-wave voltammetry (80 Hz), Hill fit. The settings on record: 137 mM NaCl, 2.7 mM KCl; 1x PBS pH 7.4, 23 °C; apparent; procaine hydrochloride.

The subject of assay [2] is Cocaine aptamer (ITO-supported sensor) (DNA, aptamer) GACAAGGAAAATCCTTCAACGAAGTGGGTC
As to the kind of experiment: square-wave voltammetry (60 Hz), Hill fit. The settings on record: 137 mM NaCl, 2.7 mM KCl; 1x PBS pH 7.4, 23 °C; apparent; procaine hydrochloride.

As for `CCN(CC)CCOC(=O)c1ccc(N)cc1`, the KD-Au in assay [1] is reported as 63.7 ± 9.3 mM. The KD-ITO in assay [2] amounted to 6.2 ± 0.6 mM.
